Where a name gives a salt, the structure may show the parent alone.
Experiments:
[1] = biological target: human ERK-2 (Mitogen Activated Kinase 1) (Homo sapiens (Human), UniProt P28482); experiment: ERK-2 Enzymatic Assay; format: biochemical; conditions: 5 nM ERK-2, 25 μM ATP, Omnia peptide S/T17; read-out: ERK Inhibition IC50
Experimental: Compounds were tested in an enzymatic assay using human ERK-2 (Mitogen Activated Kinase 1), recombinantly expressed as an n-terminal 6-His fusion protein in E. coli and corresponding to aa 8-360. The substrate used was the fluorescent Omnia peptide S/T17 (Invitrogen of Carlsbad, Calif.; Cat. KNZ1171C). Test compounds were diluted in DMSO in 3-fold serial dilutions at 100× final concentrations. […] The assay was run at ambient temperature in a white 384-well polypropylene plate (Nunc, Inc of Naperville, Ill.; Cat. 267462) collecting data every 50 seconds for approximately 30 minutes on an Envision plate reader (PerkinElmer, Inc. of Waltham, Mass.); Excitation 340 nm/Emission 495 nm. The data collected from each well was fit to a straight line and the resulting rates were used to calculate percent of control. Percent of control was plotted against compound concentration and IC50 values were determined using a four-parameter fit.

[2] = system: PMA-stimulated P90RSK(Ser380) phosphorylation in HepG2 cells; experiment: Cellular P90RSK(Ser380) Phosphorylation Assay; format: cell-based; conditions: Homo sapiens, 1.5 h compound incubation, PMA stimulation, pP90RSK(Ser380) normalized to GAPDH, read-out: Cell Assay IC50
Experimental: Inhibition of PMA-stimulated P90RSK(Ser380) phosphorylation was determined by the following in vitro cellular mechanistic assay, which comprises incubating cells with a compound for 1.5 hours and quantifying fluorescent pP90RSK(Ser380) signal on fixed cells and normalizing to GAPDH signal.
Materials and Methods: HepG2 cells were obtained from ATCC and grown in DMEM supplemented with 10% fetal bovine serum. Cells were plated in 96-well plates at 35,000 cells/well and allowed to attach overnight at 37° C./5% CO2. Diluted compounds were then added at a final concentration of 0.5% DMSO. After 1.5 hour compound incubation, cells were stimulated with the addition of PMA (phorbol 12-myristate 13-acetate) at a final concentration of 100 ng/mL; the PMA stimulation was a 30-minute incubation at 37° C./5% CO2. After the 30-minute PMA stimulation, cells were washed with PBS and fixed in 3.7% formaldehyde in PBS at room temperature for 15-20 minutes. This was followed by another wash in PBS and then permeabilization in 100% MeOH at room temperature for 10-15 minutes. Following the permeabilization incubation, cells were washed in PBS/0.05% Tween-20, followed by a block in Odyssey blocking buffer (LI-COR Biosciences) for at least 1 hour. Antibodies to phosphorylated P90RSK(Ser380) (Cell Signaling #9335, rabbit monoclonal) and GAPDH (Fitzgerald 10R-G109a, mouse monoclonal) were added to the cells and incubated overnight at 4° C. pP90RSK(Ser380) antibody was used at a 1:250 dilution; GAPDH was used at a 1:10,000 dilution. After washing with PBS/0.05% Tween-20, the cells were incubated with fluorescently-labeled secondary antibodies (Anti-rabbit-Alexa Flour680, Invitrogen Cat#A21109; Anti-mouse-IRDye800CW, Rockland Inc. Cat#610-131-121) for 1 hour. Both secondary antibodies were used at a 1:1000 dilution. Cells were then washed and analyzed for fluorescence at both wavelengths using the Odyssey Infrared Imaging System (LI-COR Biosciences). Phosphorylated P90RSK(Ser380) signal was normalized to GAPDH signal. Representative date is in TABLE III (infra).

Chain of human ERK-2 (Mitogen Activated Kinase 1) (P28482 8-360): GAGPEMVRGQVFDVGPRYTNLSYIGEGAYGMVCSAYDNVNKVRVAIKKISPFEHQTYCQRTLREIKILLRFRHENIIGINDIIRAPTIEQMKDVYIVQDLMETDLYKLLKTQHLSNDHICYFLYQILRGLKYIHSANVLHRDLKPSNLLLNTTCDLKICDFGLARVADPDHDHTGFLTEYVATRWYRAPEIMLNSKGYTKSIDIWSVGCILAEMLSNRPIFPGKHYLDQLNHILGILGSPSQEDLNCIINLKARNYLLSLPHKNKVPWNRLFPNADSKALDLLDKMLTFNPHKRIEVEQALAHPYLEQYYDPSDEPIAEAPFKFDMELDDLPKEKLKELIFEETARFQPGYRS

SMILES	IC50 [1]	IC50 [2]
C[C@@H](NC(=O)N1CCc2cnc(NC3CC(=O)N(C)C3)nc2C1)c1ccc(Cl)c(F)c1 (some centres unmarked) [II-267, 2-(1-Methyl-5-oxo-pyrrolidin-3-ylamino)-5,8-dihydro-6H-pyrido[3,4-d]pyrimidine-7-carboxylic acid [1-(4-chloro-3-fluoro-phenyl)-ethyl]-amide]	20.1 nM	28000 nM
CC(C)Nc1ncc2c(n1)CN(C(=O)CCc1ccc(Cl)cc1Cl)CC2 [II-24, 3-(2,4-Dichloro-phenyl)-1-(2-isopropylamino-5,8-dihydro-6H-pyrido[3,4-d]pyrimidin-7-yl)-propan-1-one]	244 nM	50000 nM
CC(=O)N1CCC[C@H]1[C@@H](NC(=O)N1CCc2cnc(NC(C)C)nc2C1)c1ccc(Cl)c(F)c1 [Compound I-87, N—((S)—((S)-1-acetylpyrrolidin-2-yl)(4-chloro-3-fluorophenyl)methyl)-2-(isopropylamino)-5,6-dihydropyrido[3,4-d]pyrimidine-7(8H)-carboxamide]	195 nM	5100 nM
CC(C)Nc1ncc2c(n1)CN(C(=O)N[C@H](CCN)c1ccc(C(F)(F)F)cc1)CC2 [Compound I-119, (R)—N-(3-amino-1-(4-(trifluoromethyl)phenyl)propyl)-2-(isopropylamino)-5,6-dihydropyrido[3,4-d]pyrimidine-7(8H)-carboxamide]	1.8 nM	694 nM
C[C@@H](CO)Nc1ncc2c(n1)CN(C(=O)NCc1ccc(Cl)c(Cl)c1)CC2 [Compound I-90, (S)—N-(3,4-dichlorobenzyl)-2-(1-hydroxypropan-2-ylamino)-5,6-dihydropyrido[3,4-d]pyrimidine-7(8H)-carboxamide]	2.1 nM	103 nM
CC(C)Nc1ncc2c(n1)CN(C(=O)N[C@H](CNS(C)(=O)=O)c1ccc(F)c(Cl)c1)CC2 [II-43, 2-Isopropylamino-5,8-dihydro-6H-pyrido[3,4-d]pyrimidine-7-carboxylic acid [(S)-1-(3-chloro-4-fluoro-phenyl)-2-methanesulfonylamino-ethyl]-amide]	7.1 nM	917 nM
COCC(=O)OC[C@@H](NC(=O)N1CCc2cnc(NC3CCOCC3)nc2C1)c1ccc(F)c(Cl)c1 [Compound I-56, (S)-2-(3-chloro-4-fluorophenyl)-2-(2-(tetrahydro-2H-pyran-4-ylamino)-5,6,7,8-tetrahydropyrido[3,4-d]pyrimidine-7-carboxamido)ethyl 2-methoxyacetate]	5.3 nM	66.2 nM
COC[C@@H](NC(=O)N1CCc2cnc(NCCO)nc2C1)c1ccc(Cl)c(Cl)c1 [Compound I-73]	9.8 nM	241 nM
CC(C)Nc1ncc2c(n1)CN(C(=O)N[C@H](CNc1ccncn1)c1ccc(F)c(Cl)c1)CC2 [II-51, 2-Isopropylamino-5,8-dihydro-6H-pyrido[3,4-d]pyrimidine-7-carboxylic acid [(S)-1-(3-chloro-4-fluoro-phenyl)-2-(pyrimidin-4-ylamino)-ethyl]-amide]	2.4 nM	435 nM
O=C(N1CCc2cnc(NC3CCOCC3)nc2C1)N1CCC[C@H]1c1ccccc1 [Compound I-130, (S)-(2-phenylpyrrolidin-1-yl)(2-(tetrahydro-2H-pyran-4-ylamino)-5,6-dihydropyrido[3,4-d]pyrimidin-7(8H)-yl)methanone]	123 nM	10000 nM
Cn1cc(C(NC(=O)N2CCc3cnc(NC4CCOCC4)nc3C2)c2ccc(Cl)c(F)c2)cn1 (centres unmarked) [Compound I-5, N-((4-chloro-3-fluorophenyl)(1-methyl-1H-pyrazol-4-yl)methyl)-2-(tetrahydro-2H-pyran-4-ylamino)-5,6-dihydropyrido[3,4-d]pyrimidine-7(8H)-carboxamide]	1.4 nM	47.3 nM
CC(C)Nc1ncc2c(n1)CN(C(=O)N[C@H](CN)c1ccc(F)c(Cl)c1)CC2 [II-7, 2-Isopropylamino-5,8-dihydro-6H-pyrido[3,4-d]pyrimidine-7-carboxylic acid [(S)-2-amino-1-(3-chloro-4-fluoro-phenyl)-ethyl]-amide]	1.9 nM	50000 nM
O=C(N1CCc2cnc(NC3CCOCC3)nc2C1)N1CCCC1c1ccccn1 (centres unmarked) [II-288, (2-Pyridin-2-yl-pyrrolidin-1-yl)-[2-(tetrahydro-pyran-4-ylamino)-5,8-dihydro-6H-pyrido[3,4-d]pyrimidin-7-yl]-methanone]	62.7 nM	9500 nM
O=C(N[C@@H](c1ccc(Cl)c(F)c1)c1ccno1)N1CCc2cnc(NC3CCOCC3)nc2C1 [Compound I-12, (S)—N-((4-chloro-3-fluorophenyl)(isoxazol-5-yl)methyl)-2-(tetrahydro-2H-pyran-4-ylamino)-5,6-dihydropyrido[3,4-d]pyrimidine-7(8H)-carboxamide]	4 nM	235 nM
CNC[C@@H](NC(=O)N1CCc2cnc(NC(C)C)nc2C1)c1ccc(C(F)(F)F)c(F)c1 [Compound I-66, (S)—N-(1-(3-fluoro-4-(trifluoromethyl)phenyl)-2-(methylamino)ethyl)-2-(isopropylamino)-5,6-dihydropyrido[3,4-d]pyrimidine-7(8H)-carboxamide hydrochloride]	4.1 nM	132 nM
CC(C)Nc1ncc2c(n1)CN(C(=O)N[C@H](CNc1ncccn1)c1ccc(F)c(Cl)c1)CC2 [II-50, 2-Isopropylamino-5,8-dihydro-6H-pyrido[3,4-d]pyrimidine-7-carboxylic acid [(S)-1-(3-chloro-4-fluoro-phenyl)-2-(pyrimidin-2-ylamino)-ethyl]-amide]	4.43 nM	1000 nM
C[C@@H](NC(=O)N1CCc2cnc(NC(CO)CO)nc2C1)c1ccc(Cl)c(Cl)c1 [Compound I-75, (R)—N-(1-(3,4-dichlorophenyl)ethyl)-2-(1,3-dihydroxypropan-2-ylamino)-5,6-dihydropyrido[3,4-d]pyrimidine-7(8H)-carboxamide]	5.6 nM	314 nM
CC1(C)CC[C@@H]([C@@H](NC(=O)N2CCc3cnc(NC4CCOCC4)nc3C2)c2ccc(C(F)(F)F)cc2F)N1 [Compound I-86, N—((S)—((S)-5,5-dimethylpyrrolidin-2-yl)(2-fluoro-4-(trifluoromethyl)phenyl)methyl)-2-(tetrahydro-2H-pyran-4-ylamino)-5,6-dihydropyrido[3,4-d]pyrimidine-7(8H)-carboxamide]	148 nM	3600 nM
CC(C)Nc1ncc2c(n1)CN(C(=O)N[C@@H](c1ccc(Cl)c(Cl)c1)[C@H]1CCCN1C)CC2 [Compound I-61, N—((S)-(3,4-dichlorophenyl)((R)-1-methylpyrrolidin-2-yl)methyl)-2-(isopropylamino)-5,6-dihydropyrido[3,4-d]pyrimidine-7(8H)-carboxamide]	2.9 nM	93 nM
C[C@@H](CO)Nc1ncc2c(n1)CN(C(=O)N[C@H](C)c1ccc(Cl)c(F)c1)CC2 [Compound I-21, N—((R)-1-(4-chloro-3-fluorophenyl)ethyl)-2-((S)-1-hydroxypropan-2-ylamino)-5,6-dihydropyrido[3,4-d]pyrimidine-7(8H)-carboxamide]	1.6 nM	55.2 nM
CNC[C@@H](CC(=O)N1CCc2cnc(NC(C)C)nc2C1)c1ccc(Cl)c(F)c1 [Compound I-17, (S)-3-(4-Chloro-3-fluoro-phenyl)-1-(2-isopropylamino-5,8-dihydro-6H-pyrido[3,4-d]pyrimidin-7-yl)-4-methylamino-butan-1-one]	3.2 nM	281 nM
C[C@@H](NC(=O)N1CCc2cnc(N[C@H]3CCC(F)(F)C3)nc2C1)c1ccc(Cl)c(Cl)c1 [II-116, 2-((S)-3,3-Difluoro-cyclopentylamino)-5,8-dihydro-6H-pyrido[3,4-d]pyrimidine-7-carboxylic acid [(R)-1-(3,4-dichloro-phenyl)-ethyl]-amide]	2.33 nM	130 nM

Source: patent publication US9133187B2, “Serine/threonine kinase inhibitors” (ARRAY BIOPHARMA INC., priority 2011, dated 2015)
